Test results as given in patent publication US8691856B2 (Eli Lilly and Company, priority 2005, dated 2014).

Target: cloned human glucagon receptor (Homo sapiens (Human), UniProt P47871)
Assay: Glucagon Receptor (hGlucR) Binding Assay
Experimental: The hGlucuR cDNA is subcloned into the expression plasmid phD (Trans-activated expression of fully gamma-carboxylated recombinant human protein C, an antithrombotic factor. Grinnell, B. W., Berg, D. T., Walls, J. and Yan, S. B. Bio/Technology 5: 1189-1192 (1987)). This plasmid DNA is transfected into 293 HEK cells and selected with 200 μg/mL Hygromycin.
Crude plasma membranes are prepared using cells from suspension culture. The cells are lysed on ice in hypotonic buffer containing 25 mM Tris HCL, pH 7.5, 1 mM MgCl2, DNAse1, 20 u/mL, and Roche Complete Inhibitors-without EDTA. The cell suspension is homogenized with a glass dounce homogenizer using a Teflon pestle for 25 strokes. The homogenate is centrifuged at 4 degrees C. at 1800×g for 15 mins. The supernate is collected and the pellet is resuspended in hypotonic buffer and rehomogenized. The mixture is centrifuged at 1800×g for 15 mins. The second supernate is combined with the first supernate. The combined supernates are recentrifuged at 1800×g for 15 mins to clarify. The clarified supernate is transferred to high speed tubes and centrifuged at 25000×g for 30 minutes at 4 degrees C. […]
The binding buffer contains 25 mM Hepes, pH 7.4, 2.5 mM CaCl2, 1 mM MgCl2, 0.1% fatty acid free BSA, (ICN), 0.003% tween-20, and Roche Complete Inhibitors without EDTA. […] Plates are read with a MicroBeta after 14 hours of settling time at room temp. […]

Sequence of cloned human glucagon receptor (P47871 26-477): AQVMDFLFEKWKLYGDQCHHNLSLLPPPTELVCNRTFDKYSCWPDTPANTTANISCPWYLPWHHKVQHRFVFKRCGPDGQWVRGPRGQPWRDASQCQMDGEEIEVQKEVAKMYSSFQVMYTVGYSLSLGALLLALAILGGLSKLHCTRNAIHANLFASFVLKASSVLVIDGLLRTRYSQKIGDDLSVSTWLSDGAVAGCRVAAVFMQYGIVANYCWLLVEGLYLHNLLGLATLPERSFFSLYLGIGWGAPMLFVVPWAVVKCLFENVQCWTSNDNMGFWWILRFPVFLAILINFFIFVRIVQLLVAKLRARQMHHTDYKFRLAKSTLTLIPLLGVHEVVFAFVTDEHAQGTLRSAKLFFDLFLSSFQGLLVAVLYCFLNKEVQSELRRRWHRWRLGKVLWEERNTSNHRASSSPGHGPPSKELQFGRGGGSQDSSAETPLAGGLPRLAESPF

Ki: 0.0933 µM
SMILES: Cc1cc(OC(CCC(C)(C)C)c2ccc(C(=O)Nc3nnn[nH]3)cc2)cc(C)c1-c1ccc(C(F)(F)F)cc1 (stereo not shown)
